Data from patent US9468646B2, “Increased dosage of efavirenz for the treatment of cancer” (Alienor Farma, priority 2013, dated 2016).
Where “and” joins values, the source holds several entries; their conditions need not be identical. Identical values can stand only once. Like-named read-outs stand apart in the source and are kept apart here.

Tests used:
[1] = cited from earlier work
[2] = rat, intravenous injection of 5 mg/kg; cited from earlier work
[3] = tested on: metastatic hormone-refractory prostate cancer; assay: FAVE study: PSA progression at 3 months under Efavirenz; format: in vivo, human; details: 600 mg/day; for PSA progression (share of subjects): 3 months
Description: For the exploratory analysis, following the latest recommendations of the Prostate Cancer Clinical Trials Working Group (Scher, 2008), PSA progression was defined as an increase of more than 25% over the baseline and an increase in the concentrations of PSA of at least 2 ng/ml. The clinical symptoms, the number of new bone metastasis and the global response to treatment (evaluated by the RECIST criteria) were also recorded. After three months, the global response and the overall survival were evaluated in a follow up study. Patients received 600 mg of Efavirenz per day and, during Efavirenz treatment, hormone therapy was maintained. […] However, it is difficult to predict precisely the efficacious dose in humans based on preclinical data. For this reason, the goal of the FAVE study was twofold: 1. […] Explore the relationship between the dose of the compound and clinical efficacy. In order to establish the minimal efficacious dose that could be effective for the treatment of prostate cancer the inventor used a correlational approach in which plasma concentrations of Efavirenz were related to treatment efficacy measured at the three month time point. Sixty-one patients were included in the study and fifty-three patients had no violation of the eligibility criteria and received Efavirenz at least once (general population). The assessment of Efavirenz plasma concentrations was an optional exploratory objective to which the patients had to expressly consent. Plasma Efavirenz concentrations at the three month time point were available for 41 patients that were used for the exploratory analysis.

[4] = Pharmacokinetic study in rats (Balani et al 1999); format: in vivo; details: rat, intravenous injection of 5 mg/kg, converted from μM
[5] = ESCALE study: Efavirenz plasma concentration depending on daily dose (UPLC-MS/MS); format: in vivo, human; details: for mean plasma concentration of Efavirenz: three patients
Source text: The […] clinical study is a single arm, single center (Bergonie Institute), and dose escalation phase I study. Objectives of this study are to assess the safety, tolerability, and recommended dose of Efavirenz administered orally, by continuous once-daily administration in patients with solid tumors (no pancreatic cancer) and Non-Hodgkin Lymphoma (NHL) who have failed chemotherapy treatment. The scheme of the study is a dose escalation evaluated by continual reassessment method likelihood approach (O'Quickley, 1996). […] The maximal subject number assessable is 30 patients. Blood samples for the evaluation of Efavirenz plasma concentrations were taken at 14 days, 28 days after the start of Efavirenz treatment. For Efavirenz plasma concentration determination, 10 ml of blood were collected using sodium or lithium heparinate tubes. After each blood collection, the tubes of blood were centrifuged for 5 minutes at 5000 g. Plasma was collected in polypropylene tubes. The plasma tubes of each subject were packed and stored in appropriately labelled plastic frost-resistant bags and stored at -20° C. until analysis. Samples were sent to a pharmacokinetic analysis laboratory for Efavirenz concentration analysis that was performed using a validated mass-spectrometry coupled to liquid chromatography (UPLC-MS/MS) method. […] The sample was vortex-mixed for 30 sec, and then 5 mL of diethyl ether was added. After 15 min under agitation, the organic and aqueous phases were separated by centrifugation at 3000 rpm for 10 min. […] The residue was re-dissolved in 150 μL of methanol. The UPLC-MS/MS unit consisted of Waters ACQUITY UPLC® instrument coupled with an Acquity TQD® detector. Separations were performed at 40° C. on an Acquity UPLC® BEH C18 column (50*2.1 mm) at a flow rate of 0.3 mL/min. Gradient elution was performed over 2.3 minutes using a combination of acetonitrile and ammonium formate buffer (4 mM) as mobile phase. […] Calibration curves were obtained by analysis of standard solutions prepared in plasma in the range 100-10000 ng/mL and limit of quantification (LOQ) was 2.5 ng/mL.

[6] = tested on: hormone refractory prostate cancer; assay: FAVE follow up study: progression free survival (RECIST) and overall survival, ITT analysis; format: in vivo, human
Description: For the exploratory analysis, following the latest recommendations of the Prostate Cancer Clinical Trials Working Group (Scher, 2008), PSA progression was defined as an increase of more than 25% over the baseline and an increase in the concentrations of PSA of at least 2 ng/ml. The clinical symptoms, the number of new bone metastasis and the global response to treatment (evaluated by the RECIST criteria) were also recorded. After three months, the global response and the overall survival were evaluated in a follow up study. This approach was followed by an interventional approach aimed to establish a causal relationship between dose and efficacy of the treatment. In this case after three months of treatment at the 600 mg/day dose, the doses of Efavirenz were progressively raised to reach 1.2 g/day. Differences in disease progression as a function of plasma Efavirenz concentrations were confirmed in the follow up study. […] Log-rank Mantel-Cox's test, the <1500 and 1500-3000 groups were cumulated for statistical analysis). […] These thirteen patients were used to constitute the dose escalation group.

[7] = FAVE study: Efavirenz plasma concentration (UPLC-MS/MS); format: in vivo, human; details: 600 mg/day
Source text: Sixty-one patients were included in the study and fifty-three patients had no violation of the eligibility criteria and received Efavirenz at least once (general population). The assessment of Efavirenz plasma concentrations was an optional exploratory objective to which the patients had to expressly consent. Plasma Efavirenz concentrations at the three month time point were available for 41 patients that were used for the exploratory analysis. Blood samples for the evaluation of Efavirenz plasma concentrations were taken at three months after the start of Efavirenz treatment. For Efavirenz plasma concentration determination, 10 ml of blood were collected using sodium or lithium heparinate tubes. After each blood collection, the tubes of blood were centrifuged for 5 minutes at 5000 g. Plasma was collected in polypropylene tubes. The plasma tubes of each subject were packed and stored in appropriately labelled plastic frost-resistant bags and stored at −20° C. until analysis. Samples were sent to a pharmacokinetic analysis laboratory for Efavirenz concentration analysis that was performed using a validated mass-spectrometry coupled to liquid chromatography (UPLC-MS/MS) method. […] Calibration curves were obtained by analysis of standard solutions prepared in plasma in the range 100-10000 ng/mL and limit of quantification (LOQ) was 2.5 ng/mL.

[8] = tested on: L1-RT; details: human tumor cell lines; cited from earlier work

| Structure (SMILES) | subjects with plasma concentrations above 1500 ng/ml ([1]; 600 mg/day (Marzolini, 2001)) | Efavirenz plasma concentration reached ([1]; 600 mg/day, patients with two loss or decrease of function CYP2B6 alleles (Rotger, 2007)) | maximal plasma concentration [2] [µM] | PSA progression (share of subjects) ([3]; plasma Efavirenz 1500-3000 ng/ml group, N=22) [%] | PSA progression (share of subjects) ([3]; plasma Efavirenz <1500 ng/ml group, N=12) [%] | non-progressions for PSA levels at 3 months (share of patients) ([3]; all treated patients, N=53) [%] | patients in whom the disease continued to progress (PSA) at 3 months ([3]; all treated patients, N=53) [%] | maximal plasma concentration [4] [ng/mL] | mean plasma concentration of Efavirenz ([5]; 1800 mg/day) | mean plasma concentration of Efavirenz ([5]; 2200 mg/day) | patients with Efavirenz plasma concentration of at least 3000 ng/ml ([5]; daily dose between 1800 and 2200 mg) [%] | median progression free survival ([6]; dose escalation group: up to 1200 mg/day, originally <3000 ng/ml, 13 patients) [months] | median progression free survival ([6]; low (<1500 ng/ml) and intermediate (1500-3000 ng/ml) groups cumulated) [months] | median progression free survival ([6]; plasma Efavirenz 1500-3000 ng/ml group) [months] | median progression free survival ([6]; plasma Efavirenz <1500 ng/ml group) [months] | median progression free survival ([6]; plasma Efavirenz <3000 ng/ml, no dose escalation (600 mg/day)) [months] | median progression free survival ([6]; plasma Efavirenz >3000 ng/ml group) [months] | patients with Efavirenz plasma concentration of at least 1500 ng/ml ([7]; 3 months, 41 patients) [%] | concentration at 3 months ([7]; human, plasma, cancer patients) [ng/mL] | reverse transcriptase activity of L1-RT [8] |
| --- | --- | --- | --- | --- | --- | --- | --- | --- | --- | --- | --- | --- | --- | --- | --- | --- | --- | --- | --- | --- |
| O=C1Nc2ccc(Cl)cc2[C@@](C#CC2CC2)(C(F)(F)F)O1 [Efavirenz] | 70-80% | at least 3000 ng/ml | 5 | 81.8 | 83.3 | 28 | 72 | 1578 | 3712 ng/mL and > 3000 ng/mL and > 3500 ng/mL | 7364 ng/mL and > 6500 ng/mL | 84 | 10 | 3 | 3 | 3 | 3 | 17 | 70 | 2140 |  |
| Cc1ccnc2c1NC(=O)c1cccnc1N2C1CC1 [Nevirapine] |  |  |  |  |  |  |  |  |  |  |  |  |  |  |  |  |  |  |  | able to inhibit |
